Source: patent US20210290557A1, “MULTI-PARTICULATE PHARMACEUTICAL COMPOSITION, IMMEDIATE RELEASE PELLETS, SUSTAINED RELEASE PELLETS, ENTERIC RELEASE PELLETS AND USE THEREOF” (Industrial Technology Research Institute, priority 2019, published 2021)

Assay: Solubility test for sobrerol in dissolution medium with different pH and purified water
Format: physicochemical
Method: 1. The Preparation of Dissolution Medium with Different pH Levels:
(1) Dissolution Medium with pH 2.5
7.164 g of disodium hydrogen phosphate (containing 12 molecules of water) was added to a 100 mL volumetric flask, then purified water was added to quantify to 100 mL, and then stirred using a stir bar. After the disodium hydrogen phosphate (containing 12 molecules of water) in the volumetric flask was completely dissolved, a 0.2 M disodium hydrogen phosphate solution was obtained.
19.213 g of anhydrous citric acid was assed to a 1 L volumetric flask, then purified water water was added to quantify to 1 L, and then stirred using a stir bar. After the anhydrous citric acid in the volumetric flask was completely dissolved, a 0.1 M citric acid solution was obtained.
Next, According to the list of formulas of McIlvaine buffer with different pH values, 0.2 M […] solution and 0.1 M citric acid solution were mixed at a ratio of 1.71:18.29 to obtain a dissolution medium with pH 2.5.
(2) Dissolution Medium with pH 4.5
15.6 g of Sodium dihydrogen phosphate (containing 2 molecules of water) was added to a 1 L volumetric flask, then purified water water was added to quantify to 1 L, and then stirred using a stir bar. After the sodium dihydrogen phosphate (containing 2 molecules of water) in the volumetric flask was completely dissolved, a phosphate dissolution medium with pH 4.5 was obtained.
(3) Dissolution Medium with pH 6.8
7.8 g of Sodium dihydrogen phosphate (containing 2 molecules of water) and 0.94 g of sodium hydroxide were added to a 1 L volumetric flask, then purified water water was added to quantify to 1 L, and then stirred using a stir bar. […]
250 mL of dissolution medium prepared above or purified water water was added to a beaker and a stir bar was added for stirring. […] Sobrerol was continuously added until sobrerol cannot be completely dissolved within 30 minutes, and then the total amount of sobrerol added was counted, that was, the actual solubility limit of sobrerol.

soluble amount of sobrerol (actual solubility limit) (250 mL dissolution medium with pH 2.5, 4.5, 6.8 or purified water, all media): > 900 mg
effect of pH on solubility of sobrerol (dissolution medium with different pH and purified water): not affected by pH
Compound: CC1=CCC(C(C)(C)O)CC1O (stereo not drawn) [sobrerol]
solubility classification according to FDA Biopharmaceutics Classification System guideline (soluble amount compared with the daily total of 900 mg): meets the specifications for high solubility drugs
